Structures are written as SMILES.

The text below walks through data of US8912230B2, “Method for treating cell degeneration using at least one molecule capable of inhibiting adhesion molecule expression and vascular endothelium actin fibre polymerization” (Aisa Therapeutics, priority 2004, dated 2014).

In one data set the test system is rats. As to conditions: rat, in vivo; cited from earlier work.
The next data set concerns C57/BL6 mice. Nature of the data set: Preliminary in vivo toxicity study, blood cell count (Cell Dyn 3500/3700). Also on record: species or system mouse. How it is done: FIGS. 11-25 depict the in vivo toxicity study for the natural and synthetic forms (respectively “NAT” and “SYN”) of geranyl acetate—a molecule called “AISA 5201” and selected for its representativeness of the AISA class—in a mouse model, for blood cell count parameters, at concentrations of 5, 10, 25, and 50 μg/mouse which correspond to non-toxic in vitro concentrations, allowing the desired biological effect to be observed, i.e. the inhibition of endothelial adhesion and endothelial actin polymerisation.
Two methods were used, one with the synthetic form named herein “SYN” (SIGMA catalogue number 173495), and the other with the natural unfiltered form (derived from geranium essential oils treated by HPLC) named herein “NAT”, of said molecule.
On the basis of the in vitro toxicity experiments, the “SYN” and “NAT” molecules were first tested on C57/BL6 mice at concentrations of 10, 25, and 50 μg/mouse, as well as on a control batch which was injected with PBS, either via the IP (intraperitoneal) or retro-orbital (IV) routes. Each batch consisted of 4 animals. A total of 16 animals was used.
Following the experiment, a blood cell count was performed using the Cell Dyn Systems 3500/3700 machine from Abbott Laboratories. This test was carried out to reveal any possible functional alterations. […]

In the case of `CC(=O)OC/C=C(\C)CCC=C(C)C` [AISA 5201, (E)-3,7-dimethyl-2,6-octadienyl acetate], in the data set with rats, the LD50 is on record as 6,330 mg/kg. `CC(=O)OC/C=C(\C)CCC=C(C)C` [NAT, geranyl acetate]: in the data set on C57/BL6 mice (first experiment, 10, 25, 50 μg/mouse tested), the “most appropriate concentration (WBC, NEU, LYM, MONO and PLT values closest to control)” value was 50 μg/mouse. Besides, the blood cell count entry in the data set on C57/BL6 mice (mouse, in vivo) is on record as “remaining within the values of the standard range”.
